Data reported in patent publication US9174952B2, “Substituted 3-thiazoloamino-propionic acid derivatives and their use as pharmaceuticals” (SANOFI, priority 2011, dated 2015).

Molecular target: T1, Recombinant human cathepsin A (Homo sapiens, UniProt P10619)
T1 construct: Recombinant human cathepsin A (residues 29-480, with a C-terminal 10-His tag); 10-His (C); purchased R&D Systems 1049-SE
T1 sequence (P10619 29-326 limits assumed): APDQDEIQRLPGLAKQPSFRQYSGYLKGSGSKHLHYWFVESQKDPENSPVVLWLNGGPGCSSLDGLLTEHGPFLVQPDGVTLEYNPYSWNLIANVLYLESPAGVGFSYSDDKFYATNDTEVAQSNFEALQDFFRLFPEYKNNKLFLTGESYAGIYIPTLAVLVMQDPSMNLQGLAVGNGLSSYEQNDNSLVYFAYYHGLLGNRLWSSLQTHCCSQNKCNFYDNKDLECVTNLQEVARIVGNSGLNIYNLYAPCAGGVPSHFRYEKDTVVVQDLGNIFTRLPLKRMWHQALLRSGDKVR
T1 sequence (P10619 327-480 limits assumed): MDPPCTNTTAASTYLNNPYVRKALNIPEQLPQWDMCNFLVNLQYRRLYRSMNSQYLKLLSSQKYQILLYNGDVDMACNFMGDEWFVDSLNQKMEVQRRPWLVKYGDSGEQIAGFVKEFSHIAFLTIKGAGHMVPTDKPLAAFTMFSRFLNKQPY
Experiment: Cathepsin A inhibitory activity
Assay type: biochemical
Details: activated recombinant human cathepsin A 833 ng/ml, Bodipy FL-labeled bradykinin substrate 2 μM, pH 5.5, room temperature
Outline: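 Enzyme (residues 29-480, C-terminal His tag) pre-activated by cathepsin L at 37° C, then quenched with E-64. Compound preincubated 15 min at room temperature in 25 mM MES pH 5.5 with 5 mM DTT, then 2 μM Bodipy FL-bradykinin added for 15 min at 833 ng/ml enzyme. Product/substrate separated by microfluidic capillary electrophoresis; IC50 from multi-concentration inhibition.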

| Structure (SMILES) | IC50 [nM] |
| --- | --- |
| O=C(O)C[C@H](NC(=O)c1csc(-c2ccccc2)n1)c1cccc(F)c1 [Example 48, (S)-3-(3-Fluoro-phenyl)-3-[(2-phenyl-thiazole-4-carbonyl)-amino]-propionic acid] | 955 |
| O=C(O)C[C@H](NC(=O)c1csc(-c2ccc(C(F)(F)F)cc2)n1)c1cccc(Cl)c1Cl [Example 16, (S)-3-(2,3-Dichloro-phenyl)-3-{[2-(4-trifluoromethyl-phenyl)-thiazole-4-carbonyl]-amino}-propionic acid] | 3020 |
| Cc1ccc([C@H](CC(=O)O)NC(=O)c2nc(-c3ccccc3)cs2)cc1 [Example 11, (S)-3-[(4-Phenyl-thiazole-2-carbonyl)-amino]-3-p-tolyl-propionic acid] | 404 |
| COc1cccc([C@H](CC(=O)O)NC(=O)c2csc(-c3ccccc3)n2)c1OC [Example 18, (S)-3-(2,3-Dimethoxy-phenyl)-3-[(2-phenyl-thiazole-4-carbonyl)-amino]-propionic acid] | 498 |
| O=C(O)C[C@H](NC(=O)c1csc(-c2ccc(C(F)(F)F)cc2)n1)c1cccc(Cl)c1 [Example 46, (S)-3-(3-Chloro-phenyl)-3-{[2-(4-trifluoromethyl-phenyl)-thiazole-4-carbonyl]-amino}-propionic acid] | 10500 |
| O=C(O)C[C@@H](Cc1ccccc1)NC(=O)c1nc(-c2ccccc2)cs1 [Example 1, (R)-4-Phenyl-3-[(4-phenyl-thiazole-2-carbonyl)-amino]-butyric acid] | 1710 |
| O=C(O)C[C@H](NC(=O)c1csc(-c2cccc(Cl)c2)n1)c1cccc(Cl)c1 [Example 44, (S)-3-(3-Chloro-phenyl)-3-{[2-(3-chloro-phenyl)-thiazole-4-carbonyl]-amino}-propionic acid] | 2980 |
| O=C(O)C[C@H](NC(=O)c1csc(-c2ccccc2)n1)c1ccccc1Cl [Example 27, (S)-3-(2-Chloro-phenyl)-3-[(2-phenyl-thiazole-4-carbonyl)-amino]-propionic acid] | 217 |
| O=C(O)C[C@H](NC(=O)c1csc(-c2ccccc2F)n1)c1ccc(Cl)cc1Cl [Example 24, (S)-3-(2,4-Dichloro-phenyl)-3-{[2-(2-fluoro-phenyl)-thiazole-4-carbonyl]-amino}-propionic acid] | 1070 |
| COc1ccc(-c2nc(C(=O)N[C@@H](CC(=O)O)c3ccccc3C)cs2)cc1 [Example 5, (S)-3-{[2-(4-Methoxy-phenyl)-thiazole-4-carbonyl]-amino}-3-o-tolyl-propionic acid] | 368 |
| O=C(O)C[C@H](NC(=O)c1csc(-c2ccc(C(F)(F)F)cc2)n1)c1ccc(Cl)cc1Cl [Example 25, (S)-3-(2,4-Dichloro-phenyl)-3-{[2-(4-trifluoromethyl-phenyl)-thiazole-4-carbonyl]-amino}-propionic acid] | 6370 |
| COc1cccc([C@H](CC(=O)O)NC(=O)c2csc(-c3ccccc3F)n2)c1OC [Example 19, (S)-3-(2,3-Dimethoxy-phenyl)-3-{[2-(2-fluoro-phenyl)-thiazole-4-carbonyl]-amino}-propionic acid] | 875 |
| O=C(O)C[C@H](NC(=O)c1csc(-c2ccccc2Cl)n1)c1cccc(Cl)c1 [Example 42, (S)-3-(3-Chloro-phenyl)-3-{[2-(2-chloro-phenyl)-thiazole-4-carbonyl]-amino}-propionic acid] | 238 |
| Cc1ccccc1[C@H](CC(=O)O)NC(=O)c1csc(-c2cnccn2)n1 [Example 8, (S)-3-[(2-Pyrazin-2-yl-thiazole-4-carbonyl)-amino]-3-o-tolyl-propionic acid] | 2630 |

Second part, the molecule after the results:

| IC50 [nM] | Structure (SMILES) |
| --- | --- |
| 1450 | O=C(O)CC(Cc1ccccc1)NC(=O)c1csc(-c2ccccc2Cl)n1 (centres unmarked) [Example 120, 3-{[2-(2-Chloro-phenyl)-thiazole-4-carbonyl]-amino}-4-phenyl-butyric acid] |
| 4880 | O=C(NCC(C(=O)O)c1ccccc1)c1csc(-c2ccccc2)n1 (centres unmarked) [Example 115, 2-Phenyl-3-[(2-phenyl-thiazole-4-carbonyl)-amino]-propionic acid] |
| 1050 | O=C(O)C[C@H](NC(=O)c1csc(-c2ccccc2F)n1)c1ccc(F)cc1 [Example 56, (S)-3-(4-Fluoro-phenyl)-3-{[2-(2-fluoro-phenyl)-thiazole-4-carbonyl]-amino}-propionic acid] |
| 1120 | COc1cccc([C@H](CC(=O)O)NC(=O)c2csc(-c3ccc(Cl)cc3)n2)c1OC [Example 101, (S)-3-{[2-(4-Chloro-phenyl)-thiazole-4-carbonyl]-amino}-3-(2,3-dimethoxy-phenyl)-propionic acid] |
| 680 | O=C(O)CC(NC(=O)c1csc(-c2ccccc2Cl)n1)C1CCCCC1 (centres unmarked) [Example 119, 3-{[2-(2-Chloro-phenyl)-thiazole-4-carbonyl]-amino}-3-cyclohexyl-propionic acid] |
| 30 | Cc1ccccc1[C@H](CC(=O)O)NC(=O)c1csc(-c2ccccc2Cl)n1 [Example 82, (S)-3-{[2-(2-Chloro-phenyl)-thiazole-4-carbonyl]-amino}-3-o-tolyl-propionic acid] |
| 686 | O=C(O)C[C@H](NC(=O)c1csc(-c2ccc(Cl)cc2)n1)c1cccc(Cl)c1Cl [Example 100, (S)-3-{[2-(4-Chloro-phenyl)-thiazole-4-carbonyl]-amino}-3-(2,3-dichloro-phenyl)-propionic acid] |
| 2860 | COc1cccc([C@H](CC(=O)O)NC(=O)c2csc(-c3ccccc3)n2)c1 [Example 52, (S)-3-(3-Methoxy-phenyl)-3-[(2-phenyl-thiazole-4-carbonyl)-amino]-propionic acid] |
| 1120 | O=C(O)CC(NC(=O)c1csc(-c2ccccc2)n1)C1CCCCC1 (centres unmarked) [Example 129, 3-Cyclohexyl-3-[(2-phenyl-thiazole-4-carbonyl)-amino]-propionic acid] |
| 7710 | O=C(NCC(C(=O)O)c1ccccc1)c1csc(-c2cccc(Cl)c2Cl)n1 (centres unmarked) [Example 116, 3-{[2-(2,3-Dichloro-phenyl)-thiazole-4-carbonyl]-amino}-2-phenyl-propionic acid] |
| 117 | Cc1ccccc1[C@H](CC(=O)O)NC(=O)c1csc(-c2ccccc2F)n1 [Example 87, (S)-3-{[2-(2-Fluoro-phenyl)-thiazole-4-carbonyl]-amino}-3-o-tolyl-propionic acid] |
| 16600 | Cc1ccccc1-c1nc(C(=O)N[C@@H](Cc2ccc(Cl)cc2)C(=O)O)cs1 [Example 72, (S)-3-(4-Chloro-phenyl)-2-[(2-o-tolyl-thiazole-4-carbonyl)-amino]-propionic acid] |
| 257 | O=C(O)C[C@H](NC(=O)c1csc(-c2ccccc2Cl)n1)c1cccc(F)c1 [Example 78, (S)-3-{[2-(2-Chloro-phenyl)-thiazole-4-carbonyl]-amino}-3-(3-fluoro-phenyl)-propionic acid] |
| 705 | COc1cccc([C@H](CC(=O)O)NC(=O)c2csc(-c3ccccc3Cl)n2)c1 [Example 79, (S)-3-{[2-(2-Chloro-phenyl)-thiazole-4-carbonyl]-amino}-3-(3-methoxy-phenyl)-propionic acid] |
| 126 | Cc1ccccc1[C@H](CC(=O)O)NC(=O)c1csc(-c2cccc(Cl)c2Cl)n1 [Example 71, (S)-3-{[2-(2,3-Dichloro-phenyl)-thiazole-4-carbonyl]-amino}-3-o-tolyl-propionic acid] |
| 106 | Cc1ccccc1-c1nc(C(=O)N[C@@H](CC(=O)O)c2ccccc2C)cs1 [Example 111, (S)-3-o-Tolyl-3-[(2-o-tolyl-thiazole-4-carbonyl)-amino]-propionic acid] |
| > 10000 | O=C(N[C@H](C(=O)O)C1CCCCC1)c1csc(-c2cccc(Cl)c2)n1 [Example 57, (S)-{[2-(3-Chloro-phenyl)-thiazole-4-carbonyl]-amino}-cyclohexyl-acetic acid] |
| 724 | O=C(O)C[C@H](NC(=O)c1csc(-c2ccccc2F)n1)c1cccc(F)c1 [Example 49, (S)-3-(3-Fluoro-phenyl)-3-{[2-(2-fluoro-phenyl)-thiazole-4-carbonyl]-amino}-propionic acid] |
